{"source": "patent US12233129B2", "about": "“Methods and compositions for the treatment of cancer” (priority 2019, dated 2025)", "key": {"[1]": {"system": "SW480 colon cancer cell line", "experiment": "Flow cytometry of stem cell markers", "format": "cell-based, human", "details": "VTD 72 hours", "experimental": "FIG. 24 panels A-D are examples of FlowJo analysis of CD44 biomarker in SW480 cells treated with VTD for 72 hours."}, "[2]": {"system": "HCT-116-iRFP cancer cells", "experiment": "HCT-116-iRFP xenograft mouse model", "format": "in vivo, Hsd:Athymic Nude-Foxn1nu mice", "details": "IP 0.1 mg/kg every other day for 5 weeks versus Ethanol", "experimental": "Five week Hsd:Athymic Nude-Foxn1^nu mice were implanted with 1×10^6 HCT-116-iRFP cancer cells at both flanks followed by IP injection of Ethanol (con) or Veratridine (VTD-0.1 mg/kg) every other day for 5 weeks. Twelve mice were used per treatment with 6 males and 6 females in each group."}, "[3]": {"system": "UBXN2A silenced clones of HCT-116", "experiment": "Viability (MTT) and cell death (Sytox red flow cytometry) of UBXN2A silenced cells", "format": "cell-based, human", "experimental": "We decided to confirm whether VTD-induced tumor suppression is indeed mediated via the UBXN2A-mot-2-p53 axis (FIG. 18H). After initial verification with WB (FIG. 18A), HCT-116 (p53+/+ and p53 −/−) and LoVo were treated with VTD for 24, 48, and 72 hours (FIG. 18B-D). […] We defined this phenomenon as a delayed cytotoxic response, since it occurs through UBXN2A transcription, as previously described for other anti-cancer agents. […] In the second set of experiments, we treated two stable UBXN2A silenced clones of HCT-116 along with controls with VTD. […] Staurosporine-treated cells were used as a positive control (S4F). […] Finally, to understand the contribution of mot-2 to the anti-cancer mechanism of VTD, we used a mot-2 inhibitor known as MKT-077 [7] along with VTD in well-differentiated SW-48 (WT-p53) colon cancer cells for 72 hours. Due to the critical role of mot-2 in the mitochondria, we could not use a silencing strategy for mot-2 in this set of experiments.\nThe viability of cells was calculated as % of control.\nFIG. 18: Veratridine (VTD) functions via the UBXN2A-mot-2-p53 axis. (A) WB confirmed the presence and the absence of p53 protein in HCT-116 p53^(+/+) and HCT-116 p53^(−/−) cancer cell lines, respectively. […] (F) In another set of experiments, UBXN2A-silenced cells were treated with VTD (100, 200, and 300 μM) for 24 hours. […]"}, "UBXN2A": {"system": "UBXN2A", "experiment": "Western blot of UBXN2A protein in treated HCT-116 cells", "format": "cell-based, human", "details": "VTD 20 and 40 μM, 24 hours", "experimental": "Our in vivo results encouraged us to screen for compounds that can enhance expression of UBXN2A. Using the UBXN2A promoter upstream of a luciferase construct that was transiently transfected to HCT-116 cells, we performed a high-throughput drug screen with 1800 FDA approved drugs, synthetic compounds, and natural products. Forty-eight hours after transfection, cells were treated with compounds for 24 hours in triplicate (FIG. 16A). […] We looked at protein expression of UBXN2A as well as P47 (another member of the UBXD family) to confirm the selectivity of VH as a selective enhancer of UBXN2A protein in cells. […] We observed a different level of VH-dependent UBXN2A induction in different segments of the gastrointestinal system (esophagus to rectum; data not shown).\nThe alkaloid fraction of Veratrine is known to contain a mixture of two major alkaloid esters: Veratridine (VTD) and Cevadine. VTD, with a veratroyl group at the 3-OR1 position and a free hydroxyl group at the 15-O-R2 position can function as an antihypertensive plant-derived substance. […]\nA cell-based screen was conducted in search of compounds that induce the expression of the UBXN2A gene. […] A glow luciferase activity assay was conducted in triplicate followed by semi-quantitative RT-PCR and WB analysis for UBXN2A, p47 (negative control), or GAPDH± Veratrine or its purified form VTD. […]"}}, "note": "“Also recorded” adds a separate entry of the source."}
{"smiles": "COc1ccc(C(=O)O[C@H]2CC[C@@]3(C)[C@@H]4CC[C@H]5[C@]6(O)C[C@H](O)[C@@]7(O)[C@@H](CN8C[C@@H](C)CC[C@H]8[C@@]7(C)O)[C@]6(O)C[C@@]53O[C@]24O)cc1OC", "note": "[VTD, Veratridine]", "values": [{"measurement": "CD44+ stem cell population", "setting": "[1]", "result": "significant reduction"}, {"measurement": "CD133+ stem cell population", "setting": "[1]", "result": "significant reduction"}, {"measurement": "LgR5+ stem cell population", "setting": "[1]", "result": "significant reduction"}, {"measurement": "growth of tumor", "setting": "[2]", "result": "slowdown growth of tumor"}, {"measurement": "cell viability of UBXN2A silenced cells versus control cells upon VTD", "setting": "[3]; MTT", "result": "greater cell viability than control cells; also recorded: significantly higher as compared to control cells"}, {"measurement": "cell death (Sytox red) of UBXN2A silenced cells upon VTD", "setting": "[3]; VTD 100, 200 and 300 μM, 24 hours", "result": "significant decrease in the cell death; also recorded: significantly decreases cell death"}, {"measurement": "UBXN2A protein expression (WB)", "setting": "UBXN2A", "result": "induces UBXN2A expression in a dose-dependent manner; also recorded: increases UBXN2A protein levels in a dose-dependent manner"}]}
